Reference: US5587360A, “Platelet adhesion inhibitor” (Merck Patent GmbH, priority 1990, dated 1996)
Read-outs that look alike come from different tables or passages of the source.

Test system: leech-derived protein according to the invention
Assay: Effect of typical inhibitors on the activity of the protein
Assay type: biochemical, Hirudo medicinalis
Conditions: for IC50: read-out: IC50 (mM), dose of inhibitor which gave half maximal inhibition
Method: Any hydrolysis of the chromogenic substrates. S2251, S2586, S2288. […] A preferred assay method is described below. Preparations for assay are reconstituated or diluted in assay buffer: 50 mM Tris, 0.2M NaCl, 0.05% casein (Hammerstan grade from British Drug Houses), 0.1% Brij 35, 0.01% sodium azide, pH8.0. Activity is det.ermined using modification of the AZOCCLL assay adapted to microtitre plates. Aliquots (100 microliters) of protein. in a range of dilutions in assay buffer, are incubated with a suspension of washed substrate (100 microliters: 10mg/ml) at 37 degrees Celsius. At the end of the incubation period which varies according to the experiment and dose of protein, the undigested substrate is sedimented by centrifugation and aliquots (100 microliters) of the supernatants transferred to another plate in which the absorbance at 560 nm is measured. Protein activity can be expressed as milliequivalent units of bacterial collagenase (Clostridium histolyticum) assayed at the same time under the same conditions.
The effect of some typical inhibitors was examined. The protein (5000 units/ml of a preparation of specific activity 10,000-20,000 units/mg) was incubated with DTT, cysteine, EDTA and leech anti-chymotrypsin in a range of concentrations with substrate. […] The effects of orthophenanthroline (2 mM): TIMP (tissue inhibitor of metallo-proteinase) 0.4 micrograms with APMA (0.5 mM) and with pre-incubation for 15 min): SBTI (7.5 micrograms and 30 min pre-incubation): and PMSF ([…] with 30 min pre-incubation) were also studied.

[1] = protein 5000 units/ml, o-phenanthroline 2 mM, TIMP 0.4 micrograms, SBTI 7.5 micrograms, PMSF single dose only

Row | Molecule | effect of inhibitor on activity of the protein (protein 5000 units/ml) | IC50 (mM), dose of inhibitor which gave half maximal inhibition [1] | IC50 [1] [mM] | effect of inhibitor on activity of the protein | IC50 [mM]
1 | [N-]=[N+]=[N-] [sodium azide] | did not inhibit activity | – | – | – | –
2 | c1cnc2c(c1)ccc1cccnc12 [o-Phenanthroline] | did not inhibit activity | No effect | – | – | –
3 | O[C@H](CS)[C@H](O)CS (racemic) [Dithiothreitol] | destroyed activity | – | 0.2 | – | –
4 | O=C(O)CN(CCN(CC(=O)O)CC(=O)O)CC(=O)O [EDTA] | – | – | – | destroyed activity | 2
5 | O=S(=O)(F)Cc1ccccc1 [PMSF] | did not inhibit activity | No effect | – | – | –
6 | N[C@@H](CS)C(=O)O [Cysteine] | destroyed activity | – | 3 | – | –
7 | SBTI: soybean trypsin inhibitor (protein, UniProt P01070 25-205, looked up) Trypsin inhibitor A: DFVLDNEGNPLENGGTYYILSDITAFGGIRAAPTGNERCPLTVVQSRNELDKGIGTIISSPYRIRFIAEGHPLSLKFDSFAVIMLCVGIPTEWSVVEDLPEGPAVKIGENKDAMDGWFRLERVSDDEFNNYKLVFCPQQAEDDKCGDIGISIDHDDGTRRLVVSKNKPLVVQFQKLDKESL | did not inhibit activity | No effect | – | – | –
